In patent US20160264593A1 (priority 2013, published 2016):
pIC50: −log10 of the molar value. Where “and” joins values, the source holds several entries; their conditions need not be identical. Equal entries are not always repeated. Entries after “also recorded” stand apart in the source; their conditions may differ. Where two headings read alike, the source gives them in different places.

Experiments:
[1] = system: glioblastoma (U-87) cells; test: WST cell viability assay, U-87 MG; format: cell-based; conditions: Homo sapiens, U-87 MG
[2] = system: breast cancer (2LMP) cells; test: WST cell viability assay, 2LMP
From the text: IC50 values were obtained for cytotoxicity against breast cancer (2LMP), glioblastoma (U-87) and lung cancer (A549) cells (See Table 5 and FIGS. 3-5).

[3] = system: PP2A; test: PP2A activity in mouse livers after IP dosing (PP2A immunoprecipitation phosphatase assay, malachite green); format: in vivo, Balb/c mice; conditions: for Average Conc. (group of 3 mice) / Average Relative Activity (group, vehicle = 100) / Conc. (phosphate, single reading, per mouse) / Mean Conc. (per mouse) / Mean Conc. less IgG blank (per mouse) / Relative Conc. (per mouse, to vehicle) / Relative PP2A Activity (per mouse, vehicle = 100): liver
Procedure, shortened: (§1)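 Female Balb/c mice (6-8 weeks) were dosed IP with compound in 4% sodium bicarbonate; brain and liver were harvested 3 h and 6 h post-dose. PP2A was immunoprecipitated from 240 μg lysate with anti-PP2A, using normal IgG as control. Phosphatase activity on a threonine phosphopeptide was read by malachite green absorbance against a phosphate standard curve.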

[4] = system: lung cancer (A549) cells; test: WST cell viability assay, A549; format: cell-based; conditions: Homo sapiens, A549, read-out: IC50 A549
[5] = system: PP2A; test: PP2A activity in mouse brains after IP dosing (PP2A immunoprecipitation phosphatase assay, malachite green); format: in vivo, Balb/c mice; conditions: for Average Conc. (group of 3 mice) / Average Relative Activity (group, vehicle = 100) / Conc. (phosphate, single reading, per mouse) / Mean Conc. (per mouse) / Mean Conc. less IgG blank (per mouse) / Relative Conc. (per mouse, to vehicle) / Relative PP2A Activity (per mouse, vehicle = 100): brain; for PP2A activity in brains as compared with vehicle: high doses IP
Procedure, shortened: as §1

[6] = IP, dose and time not specified
[7] = high dose IP (mpk: 100 1.5, 113 2.2, 151 1.6, 157 2.0), 3 h
[8] = high dose IP (mpk: 100 1.5, 113 2.2, 151 1.6, 157 2.0), 6 h
[9] = low dose IP (mpk: 100 0.75, 113 1.1, 151 0.8, 153 0.85, 157 1.0), 3 h
[10] = low dose IP (mpk: 100 0.75, 113 1.1, 151 0.8, 153 0.85, 157 1.0), 6 h
[11] = high dose IP (mpk: 100 1.5, 113 2.2, 151 1.6, 153 1.7, 157 2.0), 3 h
[12] = high dose IP (mpk: 100 1.5, 113 2.2, 151 1.6, 153 1.7, 157 2.0), 6 h

CCCCCCCOC(=O)C1C2CCC(O2)C1C(=O)N1CCN(C)CC1 (centres unmarked) [Compound 157, 3-(4-Methylpiperazine-1-carbonyl)-7-oxa-bicyclo[2,2,1]heptane-2-carboxylic acid heptyl ester]
pIC50 ([1]; read-out: IC50 U-87 MG, WST-20131017 (first value of the cell)): < 4.00
pIC50 ([1]; read-out: IC50 U-87 MG, WST-20131024 (second value of the cell)): < 4.00
pIC50 ([2]; read-out: IC50 2LMP, WST-20131015 (first value of the cell)): 4.04
pIC50 ([2]; read-out: IC50 2LMP, WST-20131025 (second value of the cell)): 4.02
PP2A activity in the liver of mice (statement) [3, 6]: inhibited PP2A activity
Average Conc. (group of 3 mice) [3, 7]: 234.28
Average Relative Activity (group, vehicle = 100) [3, 7]: 55.78
Conc. (phosphate, single reading, per mouse) [3, 7]: 344.85 and 360.53 and 257.33 and 287.81 and 202.46 and 225.54
Mean Conc. (per mouse) [3, 7]: 352.69 and 272.57 and 214
Mean Conc. less IgG blank (per mouse) [3, 7]: 307.22 and 227.09 and 168.52
Relative Conc. (per mouse, to vehicle) [3, 7]: 0.73 and 0.54 and 0.4
Relative PP2A Activity (per mouse, vehicle = 100) [3, 7]: 73.15 and 54.07 and 40.13
Average Conc. (group of 3 mice) [3, 8]: 232.03
Average Relative Activity (group, vehicle = 100) [3, 8]: 52.2
Conc. (phosphate, single reading, per mouse) [3, 8]: 266.91 and 213.78 and 382.3 and 411.92 and 190.7 and 199.41
Mean Conc. (per mouse) [3, 8]: 240.34 and 397.11 and 195.06
Mean Conc. less IgG blank (per mouse) [3, 8]: 194.87 and 351.63 and 149.58
Relative Conc. (per mouse, to vehicle) [3, 8]: 0.44 and 0.79 and 0.34
Relative PP2A Activity (per mouse, vehicle = 100) [3, 8]: 43.84 and 79.11 and 33.65
activity of PP2A in livers as compared with vehicle (statement) ([3]; high dose IP, 6 h post treatment): significantly inhibited
Average Conc. (group of 3 mice) [3, 9]: 328.84
Average Relative Activity (group, vehicle = 100) [3, 9]: 78.3
Average Conc. (group of 3 mice) [3, 10]: 359.62
Average Relative Activity (group, vehicle = 100) [3, 10]: 80.9
pIC50 [4]: < 4.00
PP2A activity in the brain of mice (statement) [5, 6]: inhibited PP2A activity
Average Conc. (group of 3 mice) [5, 11]: 1343.13
Average Relative Activity (group, vehicle = 100) [5, 11]: 54.50
Conc. (phosphate, single reading, per mouse) [5, 11]: 1589.30 and 1726.49 and 1634.83 and 1576.29 and 896.81 and 863.27
Mean Conc. (per mouse) [5, 11]: 1657.89 and 1605.56 and 880.04
Mean Conc. less IgG blank (per mouse) [5, 11]: 1619.87 and 1567.53 and 842.01
Relative Conc. (per mouse, to vehicle) [5, 11]: 0.75 and 0.72 and 0.39
Relative PP2A Activity (per mouse, vehicle = 100) [5, 11]: 65.72 and 63.60 and 34.16
Average Conc. (group of 3 mice) [5, 12]: 1748.29
Average Relative Activity (group, vehicle = 100) [5, 12]: 62.95
Conc. (phosphate, single reading, per mouse) [5, 12]: 1929.55 and 2102.31 and 1375.88 and 1308.40 and 1958.00 and 2043.77
Mean Conc. (per mouse) [5, 12]: 2015.93 and 1342.14 and 2000.89
Mean Conc. less IgG blank (per mouse) [5, 12]: 1977.90 and 1304.11 and 1962.86
Relative Conc. (per mouse, to vehicle) [5, 12]: 0.81 and 0.53 and 0.80
Relative PP2A Activity (per mouse, vehicle = 100) [5, 12]: 71.22 and 46.96 and 70.67
activity of PP2A in brains (statement) ([5]; high dose IP, 3 h): most potent; also recorded: significantly inhibited; also recorded: more effectively than compound 100
activity of PP2A in brains (statement) ([5]; high dose IP, 6 h): most potent; also recorded: significantly inhibited; also recorded: more effectively than compound 100
PP2A activity in brains as compared with vehicle ([5]; 3 h post treatment): 51%
PP2A activity in brains as compared with vehicle ([5]; 6 h post treatment): 63%
Average Conc. (group of 3 mice) [5, 9]: 1523.35
Average Relative Activity (group, vehicle = 100) [5, 9]: 61.81
Conc. (phosphate, single reading, per mouse) [5, 9]: 1696.01 and 1732.18 and 1420.80 and 1346.00 and 1604.74 and 1568.56
Mean Conc. (per mouse) [5, 9]: 1714.09 and 1383.40 and 1586.65
Mean Conc. less IgG blank (per mouse) [5, 9]: 1676.07 and 1345.37 and 1548.63
Relative Conc. (per mouse, to vehicle) [5, 9]: 0.77 and 0.62 and 0.71
Relative PP2A Activity (per mouse, vehicle = 100) [5, 9]: 68.00 and 54.59 and 62.83
Average Conc. (group of 3 mice) [5, 10]: 1413.26
Average Relative Activity (group, vehicle = 100) [5, 10]: 50.88
Conc. (phosphate, single reading, per mouse) [5, 10]: 1975.68 and 1782.39 and 1408.40 and 1380.55 and 1075.87 and 1084.82
Mean Conc. (per mouse) [5, 10]: 1879.04 and 1394.48 and 1080.34
Mean Conc. less IgG blank (per mouse) [5, 10]: 1841.01 and 1356.45 and 1042.32
Relative Conc. (per mouse, to vehicle) [5, 10]: 0.75 and 0.55 and 0.43
Relative PP2A Activity (per mouse, vehicle = 100) [5, 10]: 66.29 and 48.84 and 37.53
activity of PP2A in brains (statement) ([5]; low dose IP, 6 h): most potent
